Experimental data as given in patent US12329757B2, “Methods for increasing sepiapterin plasma exposure” (PTC Therapeutics MP, Inc., priority 2018, dated 2025).
Where two headings read alike, the source gives them in different places.

What was measured:
[1] = Pharmacokinetic parameters for BH4 after single dose of sepiapterin or BH4 in fasted subjects; assay type: in vivo
Procedure: Six subjects received sepiapterin in each group and three subjects received BH4 in each group where this treatment was administered. Table 5. Summary of pharmacokinetic parameters for BH4 after administration of single dose of sepiapterin or BH4 in fasted subjects.
Values shown are means of plasma concentrations of BH4 following administration at the doses shown.

[2] = Food effect on administration of sepiapterin: plasma concentrations of BH4 and sepiapterin in fasted and fed subjects; assay type: in vivo; settings: sepiapterin 10 mg/kg oral
Procedure: Method: Subjects received 2 oral doses of sepiapterin (10 mg/kg) separated by 1 week in a fasted and fed state. Subjects were fed a standard high-fat (approximately 50 percent of total caloric content of the meal) and high-calorie (approximately 800 to 1000 calories) meal starting 30 minutes prior to receiving their second oral dose of sepiapterin on Day 8.
Sampling for PK analysis occurred predose on Days 1 and 8 (within 30 minutes before dosing) and 0.5 hr, 1 hr, 2 hr, 4 hr, 8 hr, 12 hr, and 24 hr after the doses on Days 1 and 8. The blood concentrations of sepiapterin and BH4 were analyzed by MNG Labs.

[3] = fasted vs fed prior to administration

Question: Which “AUC0-24 of BH4, sepiapterin compared to BH4 administration” value [1] does the source give for `C[C@H](O)C(=O)C1=Nc2c(nc(N)[nH]c2=O)NC1` [sepiapterin, Sepiapterin] here?
Answer: much higher

Question: What about the “AUC0-inf of BH4, sepiapterin compared to BH4 administration” value [1] of the same compound?
Answer: much higher

Question: And the “Sepiapterin Concentration in Plasma, Mean” value ([2]; fasted, 0 h (predose))?
Answer: 0 nM

Question: What about the “Sepiapterin Concentration in Plasma, Median” value ([2]; fasted, 0 h (predose)) of the same compound?
Answer: 0 nM

Question: And the concentration at 24 h ([2]; fasted, 0 h (predose), read-out: Sepiapterin Concentration in Plasma, Maximum)?
Answer: 0 nM

Question: What about the concentration at 2 h ([2]; fasted, 0 h (predose), read-out: Sepiapterin Concentration in Plasma, Minimum) of the same compound?
Answer: 0 nM

Question: And the “Sepiapterin Concentration in Plasma, Mean” value ([2]; fasted, 8 h)?
Answer: 0 nM

Question: And the “Sepiapterin Concentration in Plasma, Median” value ([2]; fasted, 8 h)?
Answer: 0 nM

Question: And the concentration at 2 h ([2]; fasted, 8 h, read-out: Sepiapterin Concentration in Plasma, Minimum)?
Answer: 0 nM

Question: What about the “Sepiapterin Concentration in Plasma, Mean” value ([2]; fasted, 12 h) of the same compound?
Answer: 0 nM

Question: What about the “Sepiapterin Concentration in Plasma, Median” value ([2]; fasted, 12 h) of the same compound?
Answer: 0 nM

Question: And the concentration at 2 h ([2]; fasted, 12 h, read-out: Sepiapterin Concentration in Plasma, Minimum)?
Answer: 0 nM

Question: What about the “Sepiapterin Concentration in Plasma, Mean” value ([2]; fasted, 24 h) of the same compound?
Answer: 0 nM

Question: And the “Sepiapterin Concentration in Plasma, Median” value ([2]; fasted, 24 h)?
Answer: 0 nM

Question: And the concentration at 2 h ([2]; fasted, 24 h, read-out: Sepiapterin Concentration in Plasma, Minimum)?
Answer: 0 nM

Question: And the “Sepiapterin Concentration in Plasma, Mean” value ([2]; fed, 0 h (predose))?
Answer: 0 nM

Question: And the “Sepiapterin Concentration in Plasma, Median” value ([2]; fed, 0 h (predose))?
Answer: 0 nM

Question: And the concentration at 24 h ([2]; fed, 0 h (predose), read-out: Sepiapterin Concentration in Plasma, Maximum)?
Answer: 0 nM

Question: And the “Sepiapterin Concentration in Plasma, Median” value ([2]; fed, 0.5 h)?
Answer: 0 nM

Question: And the concentration at 2 h ([2]; fed, 0.5 h, read-out: Sepiapterin Concentration in Plasma, Minimum)?
Answer: 0 nM

Question: And the concentration at 2 h ([2]; fed, 4 h, read-out: Sepiapterin Concentration in Plasma, Minimum)?
Answer: 0 nM

Question: What about the “Sepiapterin Concentration in Plasma, Median” value ([2]; fed, 8 h) of the same compound?
Answer: 0 nM

Question: What about the concentration at 2 h ([2]; fed, 8 h, read-out: Sepiapterin Concentration in Plasma, Minimum) of the same compound?
Answer: 0 nM

Question: What about the “Sepiapterin Concentration in Plasma, Mean” value ([2]; fed, 12 h) of the same compound?
Answer: 0 nM

Question: And the “Sepiapterin Concentration in Plasma, Median” value ([2]; fed, 12 h)?
Answer: 0 nM

Question: And the concentration at 24 h ([2]; fed, 12 h, read-out: Sepiapterin Concentration in Plasma, Maximum)?
Answer: 0 nM

Question: What about the concentration at 2 h ([2]; fed, 12 h, read-out: Sepiapterin Concentration in Plasma, Minimum) of the same compound?
Answer: 0 nM

Question: And the “Sepiapterin Concentration in Plasma, Mean” value ([2]; fed, 24 h)?
Answer: 0 nM

Question: And the “Sepiapterin Concentration in Plasma, Median” value ([2]; fed, 24 h)?
Answer: 0 nM

Question: And the concentration at 24 h ([2]; fed, 24 h, read-out: Sepiapterin Concentration in Plasma, Maximum)?
Answer: 0 nM

Question: What about the concentration at 2 h ([2]; fed, 24 h, read-out: Sepiapterin Concentration in Plasma, Minimum) of the same compound?
Answer: 0 nM

Question: What about the concentration at 0.5 h ([2]; human, plasma, fasted, 0.5 h, read-out: Sepiapterin Concentration in Plasma, Minimum) of the same compound?
Answer: 0 nM

Question: What about the concentration at 4 h ([2]; human, plasma, fasted, 4 h, read-out: Sepiapterin Concentration in Plasma, Minimum) of the same compound?
Answer: 0 nM

Question: And the concentration at 8 h ([2]; human, plasma, fasted, 8 h, read-out: Sepiapterin Concentration in Plasma, Maximum)?
Answer: 0 nM

Question: And the concentration at 12 h ([2]; human, plasma, fasted, 12 h, read-out: Sepiapterin Concentration in Plasma, Maximum)?
Answer: 0 nM

Question: What about the concentration at 24 h ([2]; human, plasma, fasted, 24 h, read-out: Sepiapterin Concentration in Plasma, Maximum) of the same compound?
Answer: 0 nM

Question: What about the concentration at 0 h ([2]; human, plasma, fed, 0 h (predose), read-out: Sepiapterin Concentration in Plasma, Minimum) of the same compound?
Answer: 0 nM

Question: What about the concentration at 1 h ([2]; human, plasma, fed, 1 h, read-out: Sepiapterin Concentration in Plasma, Minimum) of the same compound?
Answer: 0 nM

Question: And the concentration at 2 h ([2]; human, plasma, fed, 2 h, read-out: Sepiapterin Concentration in Plasma, Minimum)?
Answer: 0 nM

Question: And the “Cmax of BH4 in the plasma, fasted compared to fed” value [2, 3]?
Answer: much lower

Question: And the “Cmax of sepiapterin in the plasma, fasted compared to fed” value [2, 3]?
Answer: much higher
